{"source": "paper PMC5363072", "about": "(Bioorganic & medicinal chemistry letters, 2016)", "key": {"[1]": {"target": "T1, Rat ASCT2 (Rattus norvegicus, UniProt D3ZJ25)", "T1 sequence (D3ZJ25 1-555)": "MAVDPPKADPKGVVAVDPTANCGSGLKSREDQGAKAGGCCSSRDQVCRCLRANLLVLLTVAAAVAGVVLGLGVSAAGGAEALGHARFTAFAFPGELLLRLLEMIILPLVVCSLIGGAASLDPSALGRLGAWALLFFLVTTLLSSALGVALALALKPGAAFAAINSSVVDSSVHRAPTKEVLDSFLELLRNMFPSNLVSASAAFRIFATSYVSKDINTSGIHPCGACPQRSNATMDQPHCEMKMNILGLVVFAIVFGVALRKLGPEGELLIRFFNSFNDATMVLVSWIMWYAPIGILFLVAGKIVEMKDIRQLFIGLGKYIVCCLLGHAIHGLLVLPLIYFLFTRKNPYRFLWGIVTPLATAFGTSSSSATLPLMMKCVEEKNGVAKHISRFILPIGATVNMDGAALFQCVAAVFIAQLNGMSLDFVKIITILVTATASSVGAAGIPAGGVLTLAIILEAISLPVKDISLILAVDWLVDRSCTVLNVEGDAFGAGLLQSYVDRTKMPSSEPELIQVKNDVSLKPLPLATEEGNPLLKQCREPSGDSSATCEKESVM", "assay_type": "cell-based"}, "[2]": {"tested_on": "ASCT2", "settings": "commercially available ASCT2 inhibitor; cited from earlier work"}}, "data": [{"smiles": "O=C(O)[C@@H]1C[C@@H](Cc2ccccc2F)CN1", "note": "[(R)-γ-(2-fluoro-benzyl)-L-proline]", "values": [{"measurement": "Ki", "setting": "[1]", "result": "83 ± 20", "unit": "µM"}]}, {"smiles": "O=C(O)[C@@H]1C[C@@H](Cc2ccc(-c3ccccc3)cc2)CN1", "note": "[(R)-γ-(4-biphenylmethyl)-L-proline]", "values": [{"measurement": "higher affinity compared to any other ASCT2 inhibitor tested so far", "setting": "[1]; compared to authors' earlier ASCT2 inhibitors [11],[15]", "result": "about 8 fold"}]}, {"smiles": "O=C(O)[C@@H]1CCCN1", "note": "[proline]", "values": [{"measurement": "activity in ASCT2", "setting": "[1]; concentration up to 1 mM", "result": "does not induce any activity"}]}, {"smiles": "N[C@@H](CCC(=O)Nc1ccc([N+](=O)[O-])cc1)C(=O)O", "note": "[L-γ-glutamyl-nitroanilide]", "values": [{"measurement": "affinity for ASCT2", "setting": "[2]", "result": "mM affinity"}]}]}
